In US12667559B2, “Dihydronaphthyridinone compound, and preparation method therefor and medical use thereof” (GENFLEET THERAPEUTICS (SHANGHAI) INC., priority 2020, dated 2026):
Where two headings read alike, the source gives them in different places. Each block holds one molecule with its values, some of them ahead of it.

Experiments:
L929 cells = experiment: Inhibitory activity against TNF-α induced programmed necrosis of L929 cells (CellTiter-Glo); format: cell-based; conditions: Mus musculus, 30 ng/ml murine TNF-α and 15 μM Z-VAD, 6 hours, survival rate
Excerpt: (§1) The U937 cell line used in the following test examples is from ATCC, with the number of CRL-1593.2, batch number of 63479999, and the culture medium of RPMI-1640+10% FBS. The L929 cell line used in the following test examples is from ATCC, with the number of CCL-1, batch number of 70001022, and the culture medium of MEM+10% FBS+1% PS. The reagents used, and suppliers and article numbers thereof are as follows: RPMI-1640, Gibco, 11875-093; FBS, Gibco, 10099-141; Trypsin-EDTA, Gibco, 25200-072; PS, Gibco, 15140-122; CellTiter Glo, Progema, G7573; DMSO, VWR AMRESCO, 0231-500ML; TNF-α protein (human, recombinant), Peprotech, 300-01A; Q-VD-Oph, MCE, HY-12305; V-shaped bottom plate, Corning, 3894; 384 well low flange white flat bottom polystyrene TC-treated microplates, Corning, 3570; RIPK1, Eurofins, 16-022; MOPS, BDH, 441644J; EDTA, Sigma, E5134; myelin basic protein, Sigma, M1891-25.00 MG; magnesium acetate, Merck, DU008026; ATP (non-radioactive label), Sigma, A-7699; ATP (radioactive label), Hartmann Analytic, DU008054; phosphoric acid, Metlab, DU003000; Z-VAD: Shanghai Twochem Co., Ltd., YA02401.
The compounds to be tested was dissolved in DMSO and prepared as a 10 mM stock solution, which was diluted 3.16 times with DMSO to form a series of concentration gradients, and then diluted 100 times with culture medium to make a working solution. 10,000 L929 cells/well were seeded on a 384-well white plate, and the corresponding concentration of compound was added to each well to mix with the cells uniformly. At the same time, 30 ng/ml murine TNF-α and 15 μM Z-VAD were added to induce programmed necrosis of the cells. The final concentration of DMSO was 0.2%, and the cells were placed in a 37° C., 5% CO2 incubator for further incubation for 6 hours. CellTiter-Glo reagent was used for detection. After the reaction was fully lysed, the chemiluminescence readings was detected by a microplate reader. The test results were calculated using the formula for survival rate: SR (%)=(RLU compound−RLU blank)/(RLU high control-RLU blank)×100%. The survival rate and the final concentration of the corresponding compound were plotted as a curve, and fitted using a four-parameter model to calculate the inhibitory IC50 of compounds on TNF-α-induced programmed cell necrosis.

U937 cells = experiment: Inhibitory activity against TNF-α induced programmed cell necrosis (U937 cells, CellTiter-Glo); format: cell-based, human; conditions: U937 cells, human TNF-α and Q-VD-Oph induced necrosis, 48 hours, survival rate, read-out: U937 IC50
RIPK1 = target: T1, RIPK1 (Homo sapiens, UniProt Q13546); experiment: Inhibitory activity against RIPK1 enzyme (33P-ATP, MBP substrate); format: biochemical; conditions: 36 nM RIPK1, 0.33 mg/ml MBP, 155 μM 33P-ATP, 2 hours, room temperature
T1 construct: purchased Eurofins 16-022
T1 sequence (Q13546 1-671): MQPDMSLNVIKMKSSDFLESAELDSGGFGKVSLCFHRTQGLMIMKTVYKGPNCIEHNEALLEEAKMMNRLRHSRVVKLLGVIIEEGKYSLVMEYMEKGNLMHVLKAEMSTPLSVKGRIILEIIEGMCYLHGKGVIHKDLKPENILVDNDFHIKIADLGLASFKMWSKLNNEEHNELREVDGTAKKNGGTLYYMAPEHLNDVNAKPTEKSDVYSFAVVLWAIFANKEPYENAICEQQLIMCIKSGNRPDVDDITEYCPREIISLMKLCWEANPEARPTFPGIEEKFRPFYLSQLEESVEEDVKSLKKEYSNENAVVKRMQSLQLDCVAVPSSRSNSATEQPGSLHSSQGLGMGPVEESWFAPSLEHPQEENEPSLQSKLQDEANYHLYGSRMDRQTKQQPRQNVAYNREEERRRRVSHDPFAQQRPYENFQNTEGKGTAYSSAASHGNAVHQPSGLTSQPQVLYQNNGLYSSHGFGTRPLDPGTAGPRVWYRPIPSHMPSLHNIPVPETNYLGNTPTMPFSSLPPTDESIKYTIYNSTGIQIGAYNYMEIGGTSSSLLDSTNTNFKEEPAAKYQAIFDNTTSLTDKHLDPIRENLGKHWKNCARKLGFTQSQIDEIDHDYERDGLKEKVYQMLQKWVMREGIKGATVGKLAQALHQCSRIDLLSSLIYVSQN
Excerpt: as §1
The compounds to be tested was dissolved in DMSO to prepare a 10 mM stock solution, which was diluted 3.16 times with DMSO into a series of concentration gradients, and then diluted 50 times with MOPS buffer solution (pH 7.0) to prepare a working solution, which were mixed well with 36 nM RIPK1 (final concentration), and 0.33 mg/ml substrate MBP. 10 mM magnesium ions and 155 μM phosphorous 33 isotope-labeled ATP were added to the reaction. The final concentration of DMSO was 2%. After 2 hours of reaction at room temperature, phosphoric acid was added to stop the reaction. The final reaction system was processed and then detected with a liquid scintillation counter.

SMILES: CC(=O)Nc1cn2nc(-c3cnc4c(c3)C(=O)N(Cc3ccccc3OC(F)(F)F)CC4)ccc2n1 [Z5, N-(6-(5-oxo-6-(2-(trifluoromethoxy)benzyl)-5,6,7,8-tetrahydro-1,6-naphthyridin-3-yl)imidazo[1,2-b]pyridazin-2-yl)acetamide]
IC50 (L929 cells): 8 nM | IC50 (U937 cells; Homo sapiens, U-937, 48 h): 46.7 nM

IC50 (RIPK1): 56 nM
SMILES: O=C(Nc1cn2nc(-c3cnc4c(c3)C(=O)N(Cc3ccccc3OC(F)(F)F)CC4)ccc2n1)C1CC1 [Z10, N-(6-(5-oxo-6-(2-(trifluoromethoxy)benzyl)-5,6,7,8-tetrahydro-1,6-naphthyridin-3-yl)imidazo[1,2-b]pyridazin-2-yl)cyclopropanecarboxamide]
IC50 (L929 cells): 2.4 nM | IC50 (U937 cells; Homo sapiens, U-937, 48 h): 5.9 nM

IC50 (RIPK1): 34 nM
SMILES: C[C@H](c1cc(F)ccc1-c1cnn(C)c1)N1CCc2ncc(-c3ccn4nc(N)nc4c3)cc2C1=O (single isomer, unassigned) [Z85]
IC50 (L929 cells): 13.4 nM | IC50 (U937 cells; Homo sapiens, U-937, 48 h): 4.3 nM

IC50 (RIPK1): 193 nM
SMILES: C[C@H](c1ccc(F)cc1)n1cc(N2CCc3ncc(-c4ccn5nc(N)nc5c4)cc3C2=O)cn1 (single isomer, unassigned) [Z74]
IC50 (L929 cells): 2.3 nM | IC50 (U937 cells; Homo sapiens, U-937, 48 h): 3.8 nM

IC50 (RIPK1): 50 nM
SMILES: Cc1c(-c2ccc(F)cc2CN2CCc3ncc(-c4ccn5nc(N)nc5c4)cc3C2=O)cnn1C [Z82]
IC50 (U937 cells; Homo sapiens, U-937, 48 h): 23.4 nM

IC50 (RIPK1): 72 nM
SMILES: Cn1cc(-c2ccc(F)cc2CN2CCc3ncc(-c4ccn5nc(N)nc5c4)cc3C2=O)cn1 [Z51, 3-(2-amino-[1,2,4]triazolo[1,5-a]pyridyl-7-yl)-6-(5-fluoro-2-(1-methyl-1H-pyrazol-4-yl)benzyl)-7,8-dihydro-1,6-naphthyridin-5(6H)-one]
IC50 (U937 cells; Homo sapiens, U-937, 48 h): 24 nM

SMILES: Nc1nc2cc(-c3cnc4c(c3)C(=O)N(Cc3cc(F)ccc3OC3CCCC3)CC4)ccn2n1 [Z45, 3-(2-amino-[1,2,4]triazolo[1,5-a]pyridyl-7-yl)-6-(2-(cyclopentyloxy)-5-fluorobenzyl)-7,8-dihydro-1,6-naphthyridin-5(6H)-one]
IC50 (L929 cells): 1.3 nM | IC50 (U937 cells; Homo sapiens, U-937, 48 h): 0.2 nM

SMILES: Nc1nc2cc(-c3cnc4c(c3)C(=O)N(Cc3cc(F)ccc3OC3COC3)CC4)ccn2n1 [Z79]
IC50 (U937 cells; Homo sapiens, U-937, 48 h): 47.6 nM

SMILES: C[C@@](O)(C(=O)N1C[C@@H](N2CCc3ncc(-c4cc(C(F)(F)F)c5c(N)ncnn45)cc3C2=O)[C@@H](F)C1)C(F)(F)F (mixture of isomers) [Z27, cis-3-(4-amino-5-(trifluoromethyl)pyrrolo[2,1-f][1,2,4]triazin-7-yl)-6-(4-fluoro-1-((R)-3,3,3-trifluoro-2-hydroxy-2-methylpropionyl)pyrrolidin-3-yl)-7,8-dihydro-1,6-naphthyridin-5(6H)-one]
IC50 (U937 cells): 6 nM

SMILES: Cc1cc(-c2cnc3c(c2)C(=O)N(c2cnn(C(C)c4ccc(F)cc4)c2)CC3)n2ncnc(N)c12 (centres unmarked) [Z97]
IC50 (U937 cells; Homo sapiens, U-937, 48 h): 0.2 nM

SMILES: Nc1nc2ccc(-c3cnc4c(c3)C(=O)N(Cc3cc(OC(F)(F)F)ccc3F)CC4)cc2o1 [Z16, 3-(2-aminobenzo[d]oxazol-6-yl)-6-(2-fluoro-5-(trifluoromethoxy)benzyl)-7,8-dihydro-1,6-naphthyridin-5(6H)-one]
IC50 (U937 cells; U-937): 10.7 nM

SMILES: Nc1nc2ccc(-c3cnc4c(c3)C(=O)N(Cc3cc(OC(F)(F)F)ccc3F)CC4)cc2[nH]1 [Z18, 3-(2-amino-1H-benzo[d]imidazol-6-yl)-6-(2-fluoro-5-(trifluoromethoxy)benzyl)-7,8-dihydro-1,6-naphthyridin-5(6H)-one]
IC50 (U937 cells; U-937): 70.2 nM

SMILES: C[C@@H](c1ccc(F)cc1)n1cc(N2CCc3ncc(-c4ccn5nc(N)nc5c4)cc3C2=O)cn1 (single isomer, unassigned) [Z73]
IC50 (U937 cells): 34 nM

SMILES: C[C@@](O)(C(=O)N1CC[C@H](N2CCc3ncc(-c4cc(C(F)(F)F)c5c(N)ncnn45)cc3C2=O)C1)C(F)(F)F [Z32]
IC50 (U937 cells; Homo sapiens, U-937, 48 h): 26.8 nM

SMILES: C[C@@H](c1ccccc1OC(F)(F)F)N1CCc2ncc(-c3ccn4nc(N)nc4c3)cc2C1=O [Z46-1, (S)-3-(2-amino-[1,2,4]triazolo[1,5-a]pyridyl-7-yl)-6-(1-(2-(trifluoromethoxy)phenyl)ethyl)-7,8-dihydro-1,6-naphthyridin-5(6H)-one]
IC50 (U937 cells; Homo sapiens, U-937, 48 h): 7.4 nM

SMILES: CC(=O)Nc1cn2nc(-c3cnc4c(c3)C(=O)N(c3cnn(C(C)c5ccc(F)cc5)c3)CC4)ccc2n1 (centres unmarked) [Z1]
IC50 (U937 cells; Homo sapiens, U-937, 48 h): 2.8 nM

SMILES: Cc1cc(-c2cnc3c(c2)C(=O)N([C@@H]2CN(C(=O)[C@@](C)(O)C(F)(F)F)C[C@@H]2F)CC3)n2ncnc(N)c12 [Z30, Cis-3-(4-amino-5-methylpyrrolo[2,1-f][1,2,4]triazin-7-yl)-6-(4-fluoro-1-((R)-3,3,3-trifluoro-2-hydroxy-2-methylpropionyl)pyrrolidin-3-yl)-7,8-dihydro-1,6-naphthyridin-5(6H)-one]
IC50 (U937 cells): 9.1 nM

SMILES: CC(=O)Nc1cn2nc(-c3cnc4c(c3)C(=O)N(Cc3cc(F)cc(F)c3OC3CC3)CC4)ccc2n1 [Z20, N-(6-(6-(2-cyclopropoxy-3,5-difluorobenzyl)-5-oxo-5,6,7,8-tetrahydro-1,6-naphthyridin-3-yl)imidazo[1,2-b]pyridazin-2-yl)acetamide]
IC50 (U937 cells; U-937): 4.4 nM

SMILES: Nc1nc2cc(-c3cnc4c(c3)C(=O)N(Cc3ccccc3OC3CC3)CC4)ccn2n1 [Z68]
IC50 (U937 cells; Homo sapiens, U-937, 48 h): 4.3 nM

SMILES: Nc1ncnn2c(-c3cnc4c(c3)C(=O)N(Cc3cc(OC(F)(F)F)ccc3F)CC4)cc(C(F)(F)F)c12 [Z24, 3-(4-amino-5-(trifluoromethyl)pyrrolo[2,1-f][1,2,4]triazin-7-yl)-6-(2-fluoro-5-(trifluoromethoxy)benzyl)-7,8-dihydro-1,6-naphthyridin-5(6H)-one]
IC50 (U937 cells; U-937): 36.5 nM

SMILES: CC(=O)Nc1cn2nc(-c3cnc4c(c3)C(=O)N(Cc3cc(F)ccc3CN3CCOCC3)CC4)ccc2n1 [Z19]
IC50 (U937 cells): 34.7 nM

SMILES: Nc1nc2cc(-c3cnc4c(c3)C(=O)N(Cc3cccnc3OC3CCCC3)CC4)ccn2n1 [Z47, 3-(2-amino-[1,2,4]triazole[1,5-a]pyridyl-7-yl)-6-((2-(cyclopentyloxy)pyridyl-3-yl)methyl)-7,8-dihydro-1,6-naphthyridin-5(6H)-one]
IC50 (L929 cells): 5.1 nM | IC50 (U937 cells; Homo sapiens, U-937, 48 h): 3 nM

SMILES: O=C1c2cc(-c3ccn4ncnc4c3)cnc2CCN1Cc1cc(F)cc(F)c1OC1CCOCC1 [Z13, 3-([1,2,4]triazolo[1,5-a]pyridin-7-yl)-6-(3,5-difluoro-2-((tetrahydro-2H-pyran-4-yl)oxy)benzyl)-7,8-dihydro-1,6-naphthyridin-5(6H)-one]
IC50 (U937 cells; Homo sapiens, U-937, 48 h): 1.7 nM

SMILES: Nc1nc2cc(-c3cnc4c(c3)C(=O)N(Cc3cc(OC(F)(F)F)ccc3F)CC4)ccn2n1 [Z48, 3-(2-amino-[1,2,4]triazolo[1,5-a]pyridyl-7-yl)-6-(2-fluoro-5-(trifluoromethoxy)benzyl)-7,8-dihydro-1,6-naphthyridin-5(6H)-one]
IC50 (U937 cells; U-937): 6 nM
